Reference: patent publication US10316021B2, “Heteroarylphenoxy benzamide kappa opioid ligands” (Pfizer Inc., priority 2016, dated 2019)
Like-named read-outs stand apart in the source and are kept apart here.

Columns and labels:
[1] = molecular target: T1, human mu opioid receptor (hMOR) (Homo sapiens, UniProt P35372); assay: Mu radioligand binding assay ([3H]diprenorphine, CHO cell membranes); settings: read-out: hMOR binding assay Ki
T1 construct: expressed in transfected cells; host or cells: CHO cells
T1 sequence (P35372 whole entry): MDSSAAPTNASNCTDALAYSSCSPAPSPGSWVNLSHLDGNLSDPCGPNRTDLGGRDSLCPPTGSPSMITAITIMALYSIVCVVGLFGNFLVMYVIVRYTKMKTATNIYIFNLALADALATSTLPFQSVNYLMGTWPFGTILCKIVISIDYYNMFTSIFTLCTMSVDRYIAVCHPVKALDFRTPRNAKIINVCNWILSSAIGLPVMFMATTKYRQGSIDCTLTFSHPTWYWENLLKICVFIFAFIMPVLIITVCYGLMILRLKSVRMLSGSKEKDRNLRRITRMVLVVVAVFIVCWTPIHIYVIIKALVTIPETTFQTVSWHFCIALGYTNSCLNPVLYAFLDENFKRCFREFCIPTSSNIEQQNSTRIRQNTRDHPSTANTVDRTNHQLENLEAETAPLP
Procedure: (§1) Kappa and Mu Radioligand Binding Assay:
Binding assays on membranes from CHO cells expressing human kappa or mu opioid receptors were performed according to standard procedures. Frozen cell paste was homogenized in 50 mM Tris HCl buffer (pH 7.4 @ 4 degrees C.) containing 2.0 mM MgCl2 using a Polytron and spun in a centrifuge at 40,000 g for ten minutes. The final pellet was resuspended in assay buffer (50 mM Tris HCl buffer, pH 7.4, containing 1 mM EDTA, 5 mM MgCl2). Incubations were initiated by the addition of membranes to 96-well plates containing test drugs and [^3H]diprenorphine (0.6 nM final concentration for kappa opioid receptor and 0.5 nM final concentration for mu) in a final volume of 250 μl. Non-specific binding was determined by radioligand binding in the presence of a saturating concentration of naltrexone (10 μM). After a one hour incubation period at room temperature, assay samples were rapidly filtered through PEI coated, GF/B fired Unifilter plates (PerkinElmer) and rinsed with ice-cold 50 mM Tris buffer (pH 7.4). Membrane bound [^3H]diprenorphine levels were determined by liquid scintillation counting of the filterplates in Ecolume scintillation fluid. […] Ki values were calculated according to the Cheng Prusoff equation, Ki=IC50/(1+(L/Kd)), where L is the concentration of the radioligand used in the experiment and the Kd value is the dissociation constant for the radioligand (determined previously by saturation analysis).

[2] = molecular target: T2, human kappa opioid receptor (hKOR) (Homo sapiens, UniProt P41145); assay: Kappa radioligand binding assay ([3H]diprenorphine, CHO cell membranes); settings: for Selectivity hMOR/hKOR: selectivity ratio calculated by dividing the hMOR Ki by the hKOR Ki
T2 construct: expressed in transfected cells; host or cells: CHO cells
T2 sequence (P41145 whole entry): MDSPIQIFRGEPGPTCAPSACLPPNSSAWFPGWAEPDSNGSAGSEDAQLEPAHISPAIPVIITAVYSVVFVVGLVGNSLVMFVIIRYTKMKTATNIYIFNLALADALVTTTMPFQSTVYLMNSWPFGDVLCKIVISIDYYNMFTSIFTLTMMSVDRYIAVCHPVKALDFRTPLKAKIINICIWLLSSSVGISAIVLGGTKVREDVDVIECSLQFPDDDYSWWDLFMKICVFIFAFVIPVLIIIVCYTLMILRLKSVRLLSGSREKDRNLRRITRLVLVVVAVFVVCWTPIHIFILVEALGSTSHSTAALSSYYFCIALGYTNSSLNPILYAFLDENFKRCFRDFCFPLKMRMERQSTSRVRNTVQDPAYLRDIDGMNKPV
Procedure: as §1
Binding assays on membranes from CHO cells expressing human kappa or mu opioid receptors were performed according to standard procedures. Frozen cell paste was homogenized in 50 mM Tris HCl buffer (pH 7.4 @ 4 degrees C.) containing 2.0 mM MgCl2 using a Polytron and spun in a centrifuge at 40,000 g for ten minutes. The final pellet was resuspended in assay buffer (50 mM Tris HCl buffer, pH 7.4, containing 1 mM EDTA, 5 mM MgCl2). Incubations were initiated by the addition of membranes to 96-well plates containing test drugs and [^3H]diprenorphine (0.6 nM final concentration for kappa opioid receptor and 0.5 nM final concentration for mu) in a final volume of 250 μl. Non-specific binding was determined by radioligand binding in the presence of a saturating concentration of naltrexone (10 μM). After a one hour incubation period at room temperature, assay samples were rapidly filtered through PEI coated, GF/B fired Unifilter plates (PerkinElmer) and rinsed with ice-cold 50 mM Tris buffer (pH 7.4). Membrane bound [^3H]diprenorphine levels were determined by liquid scintillation counting of the filterplates in Ecolume scintillation fluid. The IC50 value (concentration at which 50% inhibition of specific binding occurs) was calculated using a logistic 4 parameter fit model of the concentration-response data. Ki values were calculated according to the Cheng Prusoff equation, Ki=IC50/(1+(L/Kd)), where L is the concentration of the radioligand used in the experiment and the Kd value is the dissociation constant for the radioligand (determined previously by saturation analysis).

[3] = Table 19, geometric mean of 2-6 determinations unless otherwise indicated (Example 3: >=7)
[4] = Table 19, geometric mean of 2-6 determinations unless otherwise indicated (Example 3: >=7), read-out: hKOR binding assay Ki
[5] = Table 20, radioligand binding, read-out: hKOR binding assay Ki

| SMILES | Ki [1, 3] [nM] | Ki [2, 4] [nM] | other results |
| --- | --- | --- | --- |
| Cc1nn(C)cc1C1CCCN1Cc1ccc(Oc2ccc(C(N)=O)cc2)c(F)c1 (racemic) [Example 1, (+/−)-4-(4-{[2-(1,3-Dimethyl-1H-pyrazol-4-yl)pyrrolidin-1-yl]methyl}-2-fluorophenoxy) benzamide] | 20.2 | 0.871 |  |
| COc1nn(C)cc1C1CCCN1Cc1ccc(Oc2ccc(C(N)=O)cc2F)cc1 (racemic) [Example 7, (+/−)-3-Fluoro-4-(4-{[2-(3-methoxy-1-methyl-1H-pyrazol-4-yl)pyrrolidin-1-yl]methyl}phenoxy)benzamide] | 196 | 5.71 |  |
| Cc1nn(C)cc1C1CCCN1Cc1ccc(Oc2ccc(C(N)=O)c(O)c2)cc1 (racemic) [Example 16, (+/−)-4-(4-{[2-(1,3-Dimethyl-1H-pyrazol-4-yl)pyrrolidin-1-yl]methyl}phenoxy)-2-hydroxybenzamide] | 159 | 9.67 |  |
| Cc1c(C2CCCN2Cc2ccc(Oc3ccc(C(N)=O)cc3)cc2)cnn1C (racemic) [Example 36] | 20.9 | 8.53 |  |
| Cc1nn(C)c(C)c1C1CCCN1Cc1ccc(Oc2ccc(C(N)=O)cc2F)cc1 (racemic) [Example 37] | 12.5 | 13.3 | Ki ([1]; Table 20, radioligand binding): 12.5 nM; selectivity for KOR over MOR (hMOR Ki divided by hKOR Ki) [2]: 0.9 fold; Ki [2, 5]: 13.3 nM; Selectivity hMOR/hKOR [2]: 0.9 |
| Cc1nn(C)cc1C1CCCN1Cc1ccc(Oc2ccc(C(N)=O)cc2F)cc1 (single isomer, unassigned) [Example 5, 4-(4-{[2-(1,3-Dimethyl-1H-pyrazol-4-yl)pyrrolidin-1-yl]methyl}phenoxy)-3-fluorobenzamide] | 73.6 | 16.8 |  |
| COc1nn(C)cc1C1COCCN1Cc1ccc(Oc2ccc(C(N)=O)cc2F)cc1 (single isomer, unassigned) [Example 20, 3-fluoro-4-(4-{[3-(3-methoxy-1-methyl-1H-pyrazol-4-yl)morpholin-4-yl]methyl}phenoxy)benzamide] | 165 | 5.86 |  |
| COc1nn(C)cc1C1CCCCN1Cc1ccc(Oc2ccc(C(N)=O)cc2)cc1 (single isomer, unassigned) [Example 21, 4-(4-{[2-(3-methoxy-1-methyl-1H-pyrazol-4-yl)piperidin-1-yl]methyl}phenoxy)benzamide] | 14.6 | 0.567 |  |
| COc1nn(C)cc1C1COCCN1Cc1ccc(Oc2ccc(C(N)=O)cc2)c(F)c1 (single isomer, unassigned) [Example 22, 4-(2-fluoro-4-{[3-(3-methoxy-1-methyl-1H-pyrazol-4-yl)morpholin-4-yl]methyl}phenoxy)benzamide] | 95.1 | 4.52 |  |
| COc1nn(C)cc1C1COCCN1Cc1ccc(Oc2ccc(C(N)=O)cc2)cc1 (single isomer, unassigned) [Example 23, 4-(4-{[3-(3-methoxy-1-methyl-1H-pyrazol-4-yl)morpholin-4-yl]methyl}phenoxy)benzamide] | 73.3 | 3.22 |  |
| COc1nn(C)cc1C1CC(F)CN1Cc1ccc(Oc2ccc(C(N)=O)cc2)cc1 (single isomer, unassigned) [Example 24, 4-(4-{[4-fluoro-2-(3-methoxy-1-methyl-1H-pyrazol-4-yl)pyrrolidin-1-yl]methyl}phenoxy)benzamide] | 252 | 2.21 |  |
| Cc1nn(C)cc1C1CC(F)CN1Cc1ccc(Oc2ccc(C(N)=O)cc2)cc1 (single isomer, unassigned) [Example 25, 4-(4-{[2-(1,3-dimethyl-1H-pyrazol-4-yl)-4-fluoropyrrolidin-1-yl]methyl}phenoxy) benzamide] | 391 | 2.7 |  |
| Cc1nn(C)cc1C1CC(F)CN1Cc1ccc(Oc2ccc(C(N)=O)cc2)cc1 (single isomer, unassigned) [Example 26, 4-(4-{[2-(1,3-dimethyl-1H-pyrazol-4-yl)-4-fluoropyrrolidin-1-yl]methyl}phenoxy) benzamide] | > 526 | 10.5 |  |
| COc1nn(C)cc1C1CC(C)CN1Cc1ccc(Oc2ccc(C(N)=O)cc2F)cc1 (single isomer, unassigned) [Example 28, 3-fluoro-4-(4-{[2-(3-methoxy-1-methyl-1H-pyrazol-4-yl)-4-methylpyrrolidin-1-yl]methyl}phenoxy)benzamide] | 77.9 | 4.88 |  |
| COc1nn(C)cc1C1CC(C)CN1Cc1ccc(Oc2ccc(C(N)=O)cc2F)cc1 (single isomer, unassigned) [Example 29, 3-fluoro-4-(4-{[2-(3-methoxy-1-methyl-1H-pyrazol-4-yl)-4-methylpyrrolidin-1-yl]methyl}phenoxy)benzamide] | 10.6 | 0.498 |  |
| COc1nn(C)cc1C1CC(C)CN1Cc1ccc(Oc2ccc(C(N)=O)cc2F)cc1 (single isomer, unassigned) [Example 30, 3-fluoro-4-(4-{[2-(3-methoxy-1-methyl-1H-pyrazol-4-yl)-4-methylpyrrolidin-1-yl]methyl}phenoxy)benzamide] | 9.59 | 0.417 |  |
| COc1nn(C)cc1C1CC(C)CN1Cc1ccc(Oc2ccc(C(N)=O)cc2F)cc1 (single isomer, unassigned) [Example 31, 3-fluoro-4-(4-{[2-(3-methoxy-1-methyl-1H-pyrazol-4-yl)-4-methylpyrrolidin-1-yl]methyl}phenoxy)benzamide] | 51.7 | 4.99 |  |
| COc1nn(C)cc1C1CCCN1Cc1ccc(Oc2ccc(C(N)=O)cc2)c(F)c1 (single isomer, unassigned) [Example 32, 4-(2-fluoro-4-{[2-(3-methoxy-1-methyl-1H-pyrazol-4-yl)pyrrolidin-1-yl]methyl}phenoxy)benzamide] | 112 | 2.47 |  |
| COc1nn(C)cc1C1CCCN1Cc1ccc(Oc2ccc(C(N)=O)c(O)c2)cc1 (single isomer, unassigned) [Example 33, 2-hydroxy-4-(4-{[2-(3-methoxy-1-methyl-1H-pyrazol-4-yl)pyrrolidin-1-yl]methyl}phenoxy)benzamide] | 52.2 | 1.69 |  |
| Cc1c(C2CCCN2Cc2ccc(Oc3ccc(C(N)=O)cc3F)cc2)cnn1C (single isomer, unassigned) [Example 35, 4-(4-{[2-(1,5-dimethyl-1H-pyrazol-4-yl)pyrrolidin-1-yl]methyl}phenoxy)-3-fluorobenzamide] | 18.4 | 2.9 | Ki ([1]; Table 20, radioligand binding): 18.4 nM; selectivity for KOR over MOR (hMOR Ki divided by hKOR Ki) [2]: 2.5 fold; Ki [2, 5]: 2.9 nM; Selectivity hMOR/hKOR [2]: 6.4 |
| Cc1nn(C)nc1C1CCCN1Cc1ccc(Oc2ccc(C(N)=O)cc2)cc1 (single isomer, unassigned) [Example 38, 4-(4-{[2-(2,5-dimethyl-2H-1,2,3-triazol-4-yl)pyrrolidin-1-yl]methyl}phenoxy)benzamide] | 116 | 0.688 | Ki ([1]; Table 20, radioligand binding): 116 nM; selectivity for KOR over MOR, in words [2]: more selective than the phenyl examples, Comparators A and B; Ki [2, 5]: 0.7 nM; Selectivity hMOR/hKOR [2]: 168 |
| Cc1nn(C)nc1C1CCCN1Cc1ccc(Oc2ccc(C(N)=O)cc2)c(F)c1 (single isomer, unassigned) [Example 39, 4-(4-{[2-(2,5-dimethyl-2H-1,2,3-triazol-4-yl)pyrrolidin-1-yl]methyl}-2-fluorophenoxy)benzamide] | 40.9 | 0.367 |  |
| Cc1nsc(C2CCCN2Cc2ccc(Oc3ccc(C(N)=O)cc3)cc2)n1 (single isomer, unassigned) [Example 41, 4-(4-{[2-(3-methyl-1,2,4-thiadiazol-5-yl)pyrrolidin-1-yl]methyl}phenoxy)benzamide] | 2730 | 85.8 | Ki ([1]; Table 20, radioligand binding): 2730 nM; Ki ([2]; radioligand binding, [3H]diprenorphine, read-out: hKOR Ki): > 100 nM; Selectivity hMOR/hKOR [2]: 32 |
